In patent US12559474B2, “Triazine derivatives having virus replication inhibitory activity and pharmaceutical composition comprising the same” (priority 2021, dated 2026):
Like-named read-outs stand apart in the source and are kept apart here.

What was measured:
SARS-CoV-2 3CL protease = SARS-CoV-2 3CL protease (Severe acute respiratory syndrome coronavirus 2, UniProt P0DTD1); assay: biochemical; settings: 50% SARS-CoV-2 3CL protease inhibitory concentration, read-out: IC50
SARS-CoV-2 = assay: microbe, parasite or virus in culture; format: cell-based; settings: Severe acute respiratory syndrome coronavirus 2, VeroE6/TMPRSS2, 72 h, 50% SARS-CoV-2 infected cell death inhibitory concentration, VeroE6/TMPRSS2 cells, 3 days culture

Structure (SMILES) | IC50 (SARS-CoV-2 3CL protease; given as class symbols) | EC50 (SARS-CoV-2; class symbols) | IC50 (SARS-CoV-2 3CL protease; RapidFire MS) | EC50 (SARS-CoV-2; CellTiter-Glo 2.0)
Cc1cncc(-n2c(=O)nc(Nc3ccc4oc(C)c(C)c4c3)n(Cc3ccc(F)c(C#N)c3)c2=O)c1 [II-0195] | < 100 nM | 1000 to 10000 nM | – | –
Cc1cncc(-n2c(=O)nc(Nc3ccc4oc(C)cc4c3)n(Cc3ccc(F)c(C#N)c3)c2=O)c1 [II-0196] | < 100 nM | < 1000 nM | – | –
Cc1cncc(-n2c(=O)nc(Nc3ccc4nc(C)sc4c3)n(Cc3ccc(F)c(C#N)c3)c2=O)c1 [II-0197] | < 100 nM | < 1000 nM | – | –
Cc1nc2ccc(Nc3nc(=O)n(-c4cncc5ccccc45)c(=O)n3Cc3ccc(F)c(C#N)c3)cc2s1 [II-0198] | < 100 nM | < 1000 nM | – | –
Cc1cncc(-n2c(=O)nc(Nc3cc4cn(C)nc4cc3Cl)n(Cc3cc(F)ccc3F)c2=O)c1 [II-0199] | < 100 nM | < 1000 nM | – | –
N#Cc1cc(Cn2c(Nc3ccc4ncccc4c3)nc(=O)n(-c3cncc4ccccc34)c2=O)ccc1F [II-0200] | < 100 nM | 1000 to 10000 nM | – | –
Cc1cncc(-n2c(=O)nc(Nc3cc4cn(C)nc4cc3Cl)n(Cc3cc(F)cc(F)c3)c2=O)c1 [II-0201] | < 100 nM | < 1000 nM | – | –
Cn1cnc(Cn2c(=O)nc(Nc3cc4cn(C)nc4cc3Cl)n(Cc3ccc(F)cc3F)c2=O)n1 [II-0202] | < 100 nM | 1000 to 10000 nM | – | –
Cc1cncc(-n2c(=O)nc(Nc3ccc4c(c3)CCO4)n(Cc3cc(F)c(F)c(F)c3)c2=O)c1 [II-0203] | < 100 nM | < 1000 nM | – | –
Cc1cncc(-n2c(=O)nc(Nc3ccc4ncccc4c3)n(Cc3ccc(F)c(C#N)c3)c2=O)c1 [II-0204] | < 100 nM | 1000 to 10000 nM | – | –
Cc1cncc(-n2c(=O)nc(Nc3cc4cn(C)nc4cc3Cl)n(Cc3cc(Cl)cc(Cl)c3)c2=O)c1 [II-0205] | < 100 nM | 1000 to 10000 nM | – | –
Cn1cnc(Cn2c(=O)nc(Nc3cc4cn(C)nc4cc3Cl)n(Cc3cc(F)cc(F)c3)c2=O)n1 [II-0207] | < 100 nM | 1000 to 10000 nM | – | –
Cc1cncc(-n2c(=O)nc(Nc3cc4cn(C)nc4cc3Cl)n(Cc3cc(Br)cc(C#N)c3)c2=O)c1 [II-0210] | < 100 nM | 1000 to 10000 nM | – | –
Cc1cc(F)cc(Cn2c(Nc3cc4cn(C)nc4cc3Cl)nc(=O)n(-c3cncc(C)c3)c2=O)c1 [II-0212] | < 100 nM | < 1000 nM | – | –
CC1c2ccccc2CN1c1nc(=O)n(Cc2ccc[nH]c2=O)c(=O)n1Cc1cc(F)c(F)c(F)c1 (stereo not drawn) [II-0213] | < 100 nM | 1000 to 10000 nM | – | –
Cn1cnc(Cn2c(=O)nc(Nc3cc4cn(C)nc4cc3Cl)n(Cc3cccc(F)c3Cl)c2=O)n1 [II-0214] | < 100 nM | 1000 to 10000 nM | – | –
Cc1cncc(-n2c(=O)nc(Nc3cc4cn(C)nc4cc3Cl)n(Cc3cc(Cl)cc(Br)c3)c2=O)c1 [II-0215] | < 100 nM | 1000 to 10000 nM | – | –
Cn1cnc(Cn2c(=O)nc(Nc3cc4cn(C)nc4cc3Cl)n(Cc3cccc(F)c3F)c2=O)n1 [II-0217] | < 100 nM | 1000 to 10000 nM | – | –
Cn1cnc(Cn2c(=O)nc(Nc3cc4cn(C)nc4cc3Cl)n(Cc3ccc(F)cc3Br)c2=O)n1 [II-0218] | < 100 nM | 1000 to 10000 nM | – | –
Cc1cncc(-n2c(=O)nc(Nc3cc4c(cc3C)OCC4)n(Cc3cc(F)c(F)c(F)c3)c2=O)c1 [II-0219] | < 100 nM | 1000 to 10000 nM | – | –

Structure (SMILES) | IC50 (SARS-CoV-2 3CL protease; given as class symbols) | EC50 (SARS-CoV-2; class symbols) | IC50 (SARS-CoV-2 3CL protease; RapidFire MS) | EC50 (SARS-CoV-2; CellTiter-Glo 2.0)
Cc1cncc(-n2c(=O)nc(Nc3cc4cn(C)nc4cc3Cl)n(Cc3ccc(F)cc3Br)c2=O)c1 [II-0220] | < 100 nM | 1000 to 10000 nM | – | –
Cc1cncc(-n2c(=O)nc(Nc3ccc4nn(C)nc4c3)n(Cc3cc(F)c(F)c(F)c3)c2=O)c1 [II-0221] | < 100 nM | 1000 to 10000 nM | – | –
Cc1cncc(-n2c(=O)nc(N3CCC(C)(C)CC3)n(Cc3cc(F)c(F)c(F)c3)c2=O)c1 [II-0222] | < 100 nM | < 1000 nM | – | –
Cn1cnc(Cn2c(=O)nc(Nc3cc4cn(C)nc4cc3Cl)n(Cc3cccc4ccccc34)c2=O)n1 [II-0223] | – | – | 780 nM | 22500 nM
O=c1[nH]cccc1Cn1c(=O)nc(N2CC3(CCC3)C2)n(Cc2cc(F)c(F)c(F)c2)c1=O [II-0226] | – | – | 130 nM | 2770 nM
Cc1cncc(-n2c(=O)nc(NC3CCC3)n(Cc3cc(F)c(F)c(F)c3)c2=O)c1 [II-0227] | – | < 1000 nM | 630 nM | –
O=c1[nH]cccc1Cn1c(=O)nc(NC2CCCCC2)n(Cc2cc(F)c(F)c(F)c2)c1=O [II-0228] | – | – | 240 nM | 5000 nM
CSc1nc(=O)n(-c2cncc3ccccc23)c(=O)n1Cc1cc(F)c(F)c(F)c1 [II-0232] | – | < 1000 nM | 3700 nM | –
CCn1cc2cc(Nc3nc(=O)n(-c4cncc(C)c4)c(=O)n3Cc3cc(C#N)c(F)cc3C)c(Cl)cc2n1 [II-0233] | – | – | 1.5 nM | 65 nM
CNc1nc2cc(F)c(Nc3nc(=O)n(-c4cncc(C)c4)c(=O)n3Cc3cc(C#N)c(F)cc3C)cc2s1 [II-0234] | < 100 nM | < 1000 nM | – | –
CNc1nc2cc(Cl)c(Nc3nc(=O)n(Cc4ncn(C)n4)c(=O)n3Cc3cc(F)c(F)c(Cl)c3)cc2s1 [II-0235] | < 100 nM | 1000 to 10000 nM | – | –
CNc1nc2cc(Cl)c(Nc3nc(=O)n(-c4cncc(C)c4)c(=O)n3Cc3cc(F)c(F)cc3F)cc2s1 [II-0236] | < 100 nM | < 1000 nM | – | –
O=c1nc(Nc2cc3sc(NC4CC4)nc3cc2Cl)n(Cc2cc(Cl)c(F)cc2F)c(=O)n1Cc1ncccn1 [II-0237] | < 100 nM | < 1000 nM | – | –
O=c1nc(Nc2cc3cn(CCO)nc3cc2Cl)n(Cc2cc(Cl)c(F)cc2F)c(=O)n1Cc1ncccn1 [II-0238] | < 100 nM | 1000 to 10000 nM | – | –
CNc1nc2cc(Cl)c(Nc3nc(=O)n(Cc4ncccn4)c(=O)n3Cc3cc(Cl)c(F)cc3F)cc2s1 [II-0239] | < 100 nM | 1000 to 10000 nM | – | –
CC(C)(O)Cn1cc2cc(Nc3nc(=O)n(Cc4ncccn4)c(=O)n3Cc3cc(Cl)c(F)cc3F)c(Cl)cc2n1 [II-0240] | < 100 nM | 1000 to 10000 nM | – | –
CC(C)(O)Cn1cc2cc(Nc3nc(=O)n(Cc4ncccn4)c(=O)n3Cc3cc(F)c(F)c(Cl)c3)c(Cl)cc2n1 [II-0241] | – | – | 24 nM | 1390 nM
Cn1cc2cc(Nc3nc(=O)n(Cc4ncccn4)c(=O)n3Cc3cc(Cl)c(F)cc3F)c(Cl)cc2n1 [II-0242] | < 100 nM | < 1000 nM | – | –
Cn1cnc(Cn2c(=O)nc(Nc3cc4sc(NCC(F)F)nc4cc3Cl)n(Cc3cc(F)c(F)c(Cl)c3)c2=O)n1 [II-0243] | < 100 nM | 1000 to 10000 nM | – | –
Cc1cncc(-n2c(=O)nc(Nc3cc4sc(NCC(F)(F)F)nc4cc3F)n(Cc3ccc(F)c(C#N)c3)c2=O)c1 [II-0244] | < 100 nM | 1000 to 10000 nM | – | –

Structure (SMILES) | IC50 (SARS-CoV-2 3CL protease; given as class symbols) | EC50 (SARS-CoV-2; class symbols) | IC50 (SARS-CoV-2 3CL protease; RapidFire MS) | EC50 (SARS-CoV-2; CellTiter-Glo 2.0)
Cn1cc2cc(Nc3nc(=O)n(Cc4ncccn4)c(=O)n3Cc3cc(F)c(F)cc3F)c(Cl)cc2n1 [II-0245] | < 100 nM | < 1000 nM | – | –
Cn1cc2cc(Nc3nc(=O)n(Cc4nccc(N)n4)c(=O)n3Cc3cc(F)c(F)cc3F)c(Cl)cc2n1 [II-0246] | < 100 nM | 1000 to 10000 nM | – | –
Cn1ccc(-c2ccnc(Cn3c(=O)nc(Nc4cc5cn(C)nc5cc4Cl)n(Cc4cc(F)c(F)cc4F)c3=O)c2)n1 [II-0247] | < 100 nM | < 1000 nM | – | –
O=c1nc(Nc2cc3cn(CCO)nc3cc2Cl)n(Cc2cc(F)c(F)cc2F)c(=O)n1Cc1ccccn1 [II-0249] | < 100 nM | 1000 to 10000 nM | – | –
Cn1ccc(-c2ccnc(Cn3c(=O)nc(Nc4cc5cn(C)nc5cc4Cl)n(Cc4cc(F)c(F)cc4F)c3=O)n2)n1 [II-0250] | < 100 nM | 1000 to 10000 nM | – | –
Cn1cc2cc(Nc3nc(=O)n(Cc4ccccn4)c(=O)n3Cc3cc(F)c(F)cc3F)c(Cl)cc2n1 [II-0251] | < 100 nM | < 1000 nM | – | –
COc1ccnc(Cn2c(=O)nc(Nc3cc4cn(C)nc4cc3Cl)n(Cc3cc(F)c(F)cc3F)c2=O)c1 [II-0252] | < 100 nM | 1000 to 10000 nM | – | –
CNc1ccnc(Cn2c(=O)nc(Nc3cc4cn(C)nc4cc3Cl)n(Cc3cc(F)c(F)cc3F)c2=O)n1 [II-0253] | < 100 nM | 1000 to 10000 nM | – | –
Cn1cc(-c2ccnc(Cn3c(=O)nc(Nc4cc5cn(C)nc5cc4Cl)n(Cc4cc(F)c(F)cc4F)c3=O)c2)cn1 [II-0254] | < 100 nM | 1000 to 10000 nM | – | –
Cn1cc2cc(Nc3nc(=O)n(Cc4cc(Cl)ccn4)c(=O)n3Cc3cc(F)c(F)cc3F)c(Cl)cc2n1 [II-0255] | – | – | 100 nM | 1520 nM
COc1ccc(Nc2nc(=O)n(Cc3ncn(C(F)F)n3)c(=O)n2Cc2cc(F)c(F)c(F)c2)cc1 [II-0257] | – | – | 970 nM | 9140 nM
COc1ccc(Nc2nc(=O)n(Cc3cscn3)c(=O)n2Cc2cc(F)c(F)c(F)c2)cc1 [II-0258] | – | – | 950 nM | 7870 nM
COc1ccc(Nc2nc(=O)n(CC3CCN(C)C3)c(=O)n2Cc2cc(F)c(F)c(F)c2)cc1 (stereo not drawn) [II-0259] | – | – | 3400 nM | 36300 nM
CCc1nc2cc(Cl)c(Nc3nc(=O)n(Cc4ncn(C)n4)c(=O)n3Cc3cc(Cl)c(F)cc3F)cc2s1 [II-0260] | < 100 nM | < 1000 nM | – | –
Cn1cc2cc(Nc3nc(=O)n(-c4cncc(C5CC5)c4)c(=O)n3Cc3ccc(F)c(C#N)c3)c(Cl)cc2n1 [II-0261] | < 100 nM | < 1000 nM | – | –
Cn1cnc(Cn2c(=O)nc(Nc3cc4sc(NCC(F)F)nc4cc3Cl)n(Cc3cc(Cl)c(F)cc3F)c2=O)n1 [II-0262] | < 100 nM | 1000 to 10000 nM | – | –
CNc1nc2cc(F)c(Nc3nc(=O)n(-c4cncc(Cl)c4)c(=O)n3Cc3ccc(F)c(C#N)c3)cc2s1 [II-0263] | < 100 nM | 1000 to 10000 nM | – | –
Cc1cncc(-n2c(=O)nc(Nc3ccc4nn(C)c(C)c4c3)n(Cc3ccc(F)c(C#N)c3)c2=O)c1 [II-0264] | < 100 nM | 1000 to 10000 nM | – | –
Cc1cncc(-n2c(=O)nc(Nc3cc4cn(C)nc4cc3Cl)n(Cc3ccc(F)c(C#N)c3)c2=O)c1F [II-0265] | < 100 nM | < 1000 nM | – | –
Cc1c2cc(Nc3nc(=O)n(-c4cncc(Cl)c4)c(=O)n3Cc3ccc(F)c(C#N)c3)ccc2nn1C [II-0267] | < 100 nM | 1000 to 10000 nM | – | –
